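Where inhibition never reached the appropriate level, the endpoint shown equals the highest concentration tested. Otherwise, values were interpolated linearly from a five-concentration, 48-hour dose response in 96-well plates. Here, GI50 denotes the concentration required for 50% inhibition of growth. TGI marks complete inhibition of growth.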
Key:
Test in all cases: NCI tumour cell line growth inhibition, 48 h
SNB-78 CNS = test system: SNB-78 CNS
P388/ADR leukemia = test system: P388/ADR leukemia
HOP-18 NSCLC = test system: HOP-18 NSCLC
XF 498 CNS = test system: XF 498 CNS
P388 leukemia = test system: P388 leukemia
MDA-N = test system: MDA-N
DMS 114 small cell lung = test system: DMS 114 small cell lung
M19-MEL melanoma = test system: M19-MEL melanoma
KM20L2 colon = test system: KM20L2 colon
LXFL 529 NSCLC = test system: LXFL 529 NSCLC
RXF-631 renal = test system: RXF-631 renal

In the case of O=C1NC2(CCCCC2)C(=O)N1CCN(CCCl)CCCl, the TGI (SNB-78 CNS) is reported as greater than 245 µM, the TGI (P388/ADR leukemia) is reported as 234 µM and the TGI (HOP-18 NSCLC) is reported as greater than 250 µM. For the same compound, the TGI (XF 498 CNS) was 39.6 µM, the TGI (P388 leukemia) was 189 µM and the TGI (MDA-N) was greater than 25 µM. The TGI (DMS 114 small cell lung) was 248 µM, the TGI (M19-MEL melanoma) was greater than 250 µM and the TGI (KM20L2 colon) was greater than 194 µM.
In the case of COc1cc(/C=C(\NC(=O)c2ccccc2)c2nc3ncncc3[nH]2)cc(OC)c1OC, the TGI (SNB-78 CNS) is reported as greater than 100 µM, the TGI (LXFL 529 NSCLC) is reported as greater than 100 µM and the TGI (XF 498 CNS) is reported as greater than 100 µM. It also gave a TGI (RXF-631 renal) greater than 100 µM, a TGI (M19-MEL melanoma) greater than 100 µM and a TGI (KM20L2 colon) greater than 100 µM.
Work on NS(=O)(=O)c1ccc(NC(=O)C2C(=O)C(=O)N(c3ccc(S(N)(=O)=O)cc3)C2=O)cc1 (stereo not given) yielded a TGI (SNB-78 CNS) greater than 100 µM, a TGI (LXFL 529 NSCLC) greater than 100 µM and a TGI (HOP-18 NSCLC) greater than 100 µM. For the same compound, the TGI (RXF-631 renal) was greater than 100 µM, the TGI (DMS 114 small cell lung) was greater than 100 µM and the TGI (M19-MEL melanoma) was greater than 100 µM. It also gave a TGI (KM20L2 colon) greater than 100 µM.
Work on COc1cc2c(c(OC)c1OC)-c1ccc(SC)c(=O)cc1[C@@H](NC(=O)C(F)(F)F)CC2 yielded a TGI (LXFL 529 NSCLC) greater than 100 µM, a TGI (HOP-18 NSCLC) greater than 100 µM and a TGI (XF 498 CNS) of 2.37 µM. The TGI (MDA-N) was less than 0.01 µM, the TGI (M19-MEL melanoma) was greater than 100 µM and the TGI (KM20L2 colon) was less than 0.0115 µM.
For CC(C)COC1Sc2ccccc2S1, the TGI (SNB-78 CNS) was 65.1 µM, the TGI (LXFL 529 NSCLC) was 49.3 µM and the TGI (HOP-18 NSCLC) was 30.2 µM. The TGI (DMS 114 small cell lung) was 39.1 µM and the TGI (KM20L2 colon) was 36.2 µM.
With O=C(Nc1ccc(Cl)cc1C(=O)O)c1ccc([N+](=O)[O-])cc1 the TGI (SNB-78 CNS) was 67.2 µM, the TGI (LXFL 529 NSCLC) was 48.7 µM and the TGI (XF 498 CNS) was 90.1 µM. The TGI (RXF-631 renal) was greater than 100 µM, the TGI (DMS 114 small cell lung) was 36.8 µM and the TGI (M19-MEL melanoma) was 55.9 µM. It also gave a TGI (KM20L2 colon) of 48.3 µM.
With CCCCNC(=S)OCCC(C)CCCC(C)C (stereo not given) the TGI (SNB-78 CNS) was greater than 100 µM, the TGI (LXFL 529 NSCLC) was greater than 100 µM and the TGI (HOP-18 NSCLC) was greater than 100 µM. The TGI (XF 498 CNS) was greater than 100 µM, the TGI (DMS 114 small cell lung) was greater than 100 µM and the TGI (M19-MEL melanoma) was greater than 100 µM. For the same compound, the TGI (KM20L2 colon) was greater than 100 µM.
For N#CC1(C#N)C=CC(=C2OCC3CCCN23)C=C1 (stereo not given), the TGI (SNB-78 CNS) was greater than 100 µM, the TGI (LXFL 529 NSCLC) was greater than 100 µM and the TGI (HOP-18 NSCLC) was greater than 100 µM. For the same compound, the TGI (DMS 114 small cell lung) was greater than 100 µM, the TGI (M19-MEL melanoma) was greater than 100 µM and the TGI (KM20L2 colon) was greater than 100 µM.
COS(C)(=O)=O showed a TGI (MDA-N) greater than 2 µM.
Work on O=C1C=C2CCCC2C(C(=O)O)(C(=O)O)C1 (stereo not given) yielded a TGI (SNB-78 CNS) greater than 100 µM, a TGI (LXFL 529 NSCLC) greater than 100 µM and a TGI (XF 498 CNS) greater than 100 µM. It also gave a TGI (RXF-631 renal) greater than 100 µM, a TGI (DMS 114 small cell lung) greater than 100 µM and a TGI (M19-MEL melanoma) greater than 100 µM.
For CC1=CP(=O)(c2ccccc2)C=C(C)C1=C(Cl)Cl (stereo not given), the TGI (SNB-78 CNS) was 9.03 µM, the TGI (LXFL 529 NSCLC) was 11.3 µM and the TGI (HOP-18 NSCLC) was 45.2 µM. It also gave a TGI (XF 498 CNS) of 34.8 µM, a TGI (DMS 114 small cell lung) of 28.9 µM and a TGI (M19-MEL melanoma) of 30.3 µM. For the same compound, the TGI (KM20L2 colon) was 4.61 µM.
O=C(CC1C(=O)Nc2ccccc2S1(=O)=O)Nc1ccc(Cl)cc1 (stereo not given) showed a TGI (SNB-78 CNS) of 93.8 µM, a TGI (LXFL 529 NSCLC) of 78.2 µM and a TGI (XF 498 CNS) of 30.5 µM. The TGI (RXF-631 renal) was greater than 100 µM, the TGI (DMS 114 small cell lung) was 55.7 µM and the TGI (M19-MEL melanoma) was 61.9 µM. It also gave a TGI (KM20L2 colon) greater than 100 µM.
COc1ccc2c(c1)CCc1cc(OC)ccc1/[N+]([O-])=[N+]\2[O-] was tested, and the TGI (MDA-N) was 29.8 µM.
OC1CCCC2CCC[N-]C12.OC1CCCC2CCC[N-]C12.[O]=[V][OH] (stereo not given) was tested, and the GI50 (MDA-N) was 5.86 µM and the TGI (MDA-N) was greater than 100 µM.
O=C(Nc1ccccc1)OC1OC(COC(=O)c2ccccc2)C(OC(=O)c2ccccc2)C1OS(=O)(=O)c1ccc([N+](=O)[O-])cc1 (stereo not given) gave a TGI (MDA-N) greater than 100 µM.
Work on COc1ccc(O)cc1C(O)c1ccccc1 (stereo not given) yielded a TGI (SNB-78 CNS) greater than 100 µM, a TGI (LXFL 529 NSCLC) greater than 100 µM and a TGI (HOP-18 NSCLC) greater than 100 µM. For the same compound, the TGI (XF 498 CNS) was greater than 100 µM, the TGI (DMS 114 small cell lung) was greater than 100 µM and the TGI (M19-MEL melanoma) was greater than 100 µM. For the same compound, the TGI (KM20L2 colon) was greater than 100 µM.
